Read-outs that look alike come from different tables or passages of the source. Marks after values point to notes of the source that are not given here.
Legend:
mice = test: Sedative effects in mice (spontaneous activities); type: in vivo; set-up: unit not given here; settings: single dose 20 mg/kg
Protocol: Spontaneous activities of the mice were recorded by alternating current tube, Sedative effects were tested after single dose (20 mg/kg).

5-HT2A receptor = molecular target: T1, 5-HT2A receptor (Homo sapiens, UniProt P28223); test: In-vitro competitive binding to 5-HT2A receptor, [3H]-Ketanserin, transformed HEK293 cells; settings: for inhibition at 10 µM: read-out: 5-HT2A [3H]-Ketanserin inhibition percentage; for IC50 / Ki: affinity to 5-HT2A receptor, concentration gradient test; for inhibitory activity on 5-HT2A (in words): compared with Aripiprazole
T1 construct: expressed in transfected cells; host or cells: HEK293
T1 sequence (P28223 whole entry): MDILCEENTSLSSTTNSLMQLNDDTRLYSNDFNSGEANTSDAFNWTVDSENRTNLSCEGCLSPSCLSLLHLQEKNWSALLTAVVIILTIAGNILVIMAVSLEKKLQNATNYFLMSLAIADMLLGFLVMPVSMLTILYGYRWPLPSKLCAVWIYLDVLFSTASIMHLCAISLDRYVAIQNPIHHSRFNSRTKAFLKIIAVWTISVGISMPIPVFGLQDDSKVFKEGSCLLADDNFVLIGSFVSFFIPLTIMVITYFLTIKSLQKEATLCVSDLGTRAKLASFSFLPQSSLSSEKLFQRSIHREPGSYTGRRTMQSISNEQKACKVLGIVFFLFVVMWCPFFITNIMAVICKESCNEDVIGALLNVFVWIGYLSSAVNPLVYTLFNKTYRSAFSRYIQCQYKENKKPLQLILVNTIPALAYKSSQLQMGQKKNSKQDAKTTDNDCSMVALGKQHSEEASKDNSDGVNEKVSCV
Protocol: All test samples were dissolved in DMSO at a concentration of 0.01 mol/L, and then diluted with deionized water to 100 umol/L.
HEK293 cells were transformed with plasmid carriers containing the gene coding for 5-HT2A receptor protein by using calcium phosphate transformation. Stable cell strains which could stably express 5-HT2A receptor protein were obtained from the transformed cells by cultivating in a culture media containing G418, selecting monoclones of the cell and performing radioactive ligand binding assay.
Beckman LS 6500 Scintillation Counter.
HEK-293 cells were infected with recombined viruses containing various genes described above. […] Cells were centrifuged at 1000 rpm for 5 min Culture media was discarded, and cell bodies were collected and stored at −20° C. in a freezer. The cell bodies were resuspended with Tris-HCl reaction buffer during assay.
After incubation at 37° C. for 15 min, the reaction mixture was immediately transferred into ice bath to terminate the reaction; the reaction mixture was quickly filtered through GF/C glass cellulose filter on a Millipore cell sample collector, and was then washed with eluting solution (50 mM Tris-HCl, PH 7.7, 3 ml×3) and dried in a microwave for 8-9 min. The filter was transferred into a 0.5 ml centrifuge tube, and 500 μl lipid soluble scintillation fluid was added. The centrifuge tube was allowed to stand in darkness for more than 30 min. Radioactivity was determined by counting Inhibition percentage of each compound on isotope ligand binding was calculated according to the following equation:
inhibition percentage(I %)=cpm of overall binding tube−cpm of compound/cpm of overall binding tube−cpm of nonspecific binding tube×100%.
Each compound was tested in two duplicate test tubes and two separate tests were performed.

[1] = molecular target: T2, 5-HT reuptake by brain synapses (Rattus norvegicus, UniProt P31652); test: [3H]5-HT reuptake test in rat brain synapses; type: biochemical; settings: for inhibitory activity on 5-HT reuptake (in words): at 10 μmol/L, compared with Dutoxetine; for inhibition at 10 µM: final concentration 10 umol/L, rat brain synapses, read-out: 5-HTU [3H] 5-HT reuptake inhibition percentage Mean
T2 construct: forehead cortex was obtained for [^3H]5-HT, [^3H]NA reuptake test; from tissue; host or cells: rat (SD) forebrain cortex synaptosomes
T2 sequence (P31652 whole entry): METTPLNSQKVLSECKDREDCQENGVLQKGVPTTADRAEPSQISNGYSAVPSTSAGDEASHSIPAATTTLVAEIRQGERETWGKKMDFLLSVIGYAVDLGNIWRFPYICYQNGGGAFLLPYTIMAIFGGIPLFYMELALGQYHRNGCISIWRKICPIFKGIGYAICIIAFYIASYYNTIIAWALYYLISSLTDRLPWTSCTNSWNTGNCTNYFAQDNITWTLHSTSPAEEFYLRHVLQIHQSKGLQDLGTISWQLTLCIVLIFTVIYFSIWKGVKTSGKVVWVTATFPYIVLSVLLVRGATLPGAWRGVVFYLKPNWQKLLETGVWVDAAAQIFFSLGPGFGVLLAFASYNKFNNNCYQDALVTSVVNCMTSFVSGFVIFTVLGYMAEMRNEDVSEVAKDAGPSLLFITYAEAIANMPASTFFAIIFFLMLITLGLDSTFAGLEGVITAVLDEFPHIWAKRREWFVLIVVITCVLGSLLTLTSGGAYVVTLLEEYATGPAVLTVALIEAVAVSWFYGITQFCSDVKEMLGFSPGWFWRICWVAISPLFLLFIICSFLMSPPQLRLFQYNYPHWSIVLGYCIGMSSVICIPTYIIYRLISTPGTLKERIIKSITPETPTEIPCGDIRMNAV
Protocol: The method was as follows:
Male SD rats were killed by cervical dislocation, heads were immediately cut and brains were obtained and put on ice, related brain tissues were dissected (forehead cortex was obtained for [^3H]5-HT, [^3H]NA reuptake test, corpus striatum was obtained for [^3H]DA reuptake).
After the sample was weighed, 10 folds (V/W) ice cold 0.32 mol/L sucrose solution was added.
According to [a. […] 5-HT was added and after incubation in water bath at 37° C. for 10 min, the reaction mixture was immediately taken out of the water bath and 2 ml ice cold 150 mmol/L Tris-HCl was added to terminate the reaction. The sample was collected on a round glass fiber filter by vacuum filtration and washed three times with 3 ml ice cold Tris-HCl buffer. The filter membrane was removed, dried in a far-infrared oven for 15 min, then transferred into a EP tube, in which 1.5 ml scintillation fluid was added, left overnight and detected by a scintillation counter. The test sample was not added into solvent controlled overall binding tube or non-specific binding tube. 50 μl solvent was added into the overall binding tube, and in [^3H] 5-HT reuptake test, 600 μmol/L cocaine was added into the non-specific binding tube.

Kunming mice [2] = test: Acetic acid-induced abdominal writhing test in mice; type: in vivo
Protocol: Kunming mice, SPF KM mice purchased from […] SLAC LABORATORY ANIMAL CO. LTD and kept in normal environment.
The compounds were dissolved in water for injection at a concentration of 4 mg/ml, 2 mg/ml and 1 mg/ml and were given intragastrically to animals.
(§1) Three different doses (10, 20, and 40 mg/kg) were administered to the test groups.
Aspirin was used as a positive control and acetic acid writhing test was used.
30 mice (half male and half female) weighing 18-23 g were divided into five groups, including negative control group, positive control group, low dose group, medium dose group and high dose group:
Mice in test group received test drug (10 mg/kg, 20 mg/kg, 40 mg/kg) via intragastric administration. Negative control group received physiological saline (20 ml/kg) via oral administration. Positive control group received aspirin (200 mg/kg) via oral administration. One hour later, each group received 0.7% acetic acid 10 ml/kg intraperitoneally. Five minutes later, the number of writhes was counted within the subsequent 15 min period; inhibition percentage of writhing response in each test group was calculated by the following equation: […]

Kunming mice [3] = test: Hot-plate test in mice; type: in vivo; settings: 1 h post dose
Protocol: Kunming mice, SPF KM mice were purchased from […] SLAC LABORATORY ANIMAL CO. LTD and kept in normal environment.
The compounds were dissolved in water for injection at a concentration of 4 mg/ml, 2 mg/ml and 1 mg/ml and were given subcutaneously to animals.
as §1
Morphine was used as a positive control and hot plate test was used.
30-40 mice (half male and half female) weighed from 18 to 23 gram were used. First, each mouse was placed on a hot plat at 55° C. to determine basic pain threshold for 2-3 times. Those animals with basic pain threshold of 5-30 s were qualified, unqualified mice were not used. 30 qualified mice were divided into five groups, including negative control group, positive control group, low-dose group, medium-dose group and high-dose group:
Mice in test groups received test sample solution (10 mg/kg, 20 mg/kg, 40 mg/kg) via subcutaneous injection in the neck. Positive control group received subcutaneous injection of morphine (2 mg/kg). One hour later, pain threshold values were determined for mice in each group as post-drug pain threshold. Percentage increase in pain threshold was calculated according to the following equation: […]

[4] = 10 mg/kg intragastric administration
[5] = 20 mg/kg intragastric administration
[6] = 40 mg/kg intragastric administration

## Fc1ccc2c(C3CCN(CCCn4ncc5ccccc54)CC3)noc2c1 [II-13, 3-(1-(3-(1H-indazol-1-yl)propyl)piperidin-4-yl)-6-fluorobenzo[d]isoxazole]
mice
  Sedative effect: 66*

## Fc1ccc2c(C3CCN(CCCn4ccc5ccccc54)CC3)noc2c1 [II-2, 3-(1-(3-(1H-indol-1-yl)propyl)piperidin-4-yl)-6-fluorobenzo[d]isoxazole]
mice
  Sedative effect: 44*

## Fc1ccc2c(C3CCN(CCCn4cnc5ccc(F)cc54)CC3)noc2c1 [III-1, 6-fluoro-3-(1-(3-(6-fluoro-1H-benzo[d]imidazol-1-yl)propyl)piperidin-4-yl)benzo[d]isoxazole]
mice
  Sedative effect: 54*

## Fc1ccc2c(C3CCN(CCCCn4ccc5ccc(Cl)cc54)CC3)noc2c1 [II-10, 3-(1-(4-(6-chloro-1H-indol-1-yl)butyl)piperidin-4-yl)-6-fluorobenzo[d]isoxazole]
mice
  Sedative effect: 99**

## N#Cc1ccc2ccn(OCCCN3CCC(c4noc5cc(F)ccc45)CC3)c2c1 [IV-2, 1-(3-(4-(6-fluorobenzo[d]isoxazol-3-yl)piperidin-1-yl)propoxy)-1H-indole-6-carbonitrile]
mice
  Sedative effect: 52*

## Fc1ccc2c(C3CCN(CCCCCn4ccc5ccccc54)CC3)noc2c1 [II-4, 3-(1-(5-(1H-indol-1-yl)pentyl)piperidin-4-yl)-6-fluorobenzo[d]isoxazole]
mice
  Sedative effect: 91**
5-HT2A receptor
  inhibition at 10 µM: 99.9%

## Fc1ccc2c(C3CCN(CCOn4nnc5ccc(Cl)cc54)CC3)noc2c1 [IV-3, 3-(1-(2-(6-chloro-1H-benzo[d][1,2,3]triazol-1-yloxy)ethyl)piperidin-4-yl)-6-fluorobenzo[d]isoxazole]
mice
  Sedative effect: 67*
5-HT2A receptor
  inhibition at 10 µM: 92.8%

## N#Cc1ccc2ccn(CCCN3CCC(c4noc5cc(F)ccc45)CC3)c2c1 [II-6, 1-(3-(4-(6-fluorobenzo[d]isoxazol-3-yl)piperidin-1-yl)propyl)-1H-indole-6-carbonitrile]
mice
  Sedative effect: 75**
[1]
  inhibitory activity on 5-HT reuptake (in words): potent inhibitory activities
  inhibition at 10 µM: 96.7%
Kunming mice [2]; [4]
  Inhibition percentage of writhing response: 74.09* %
Kunming mice [2]; [5]
  Inhibition percentage of writhing response: 69.55%
Kunming mice [2]; [6]
  Inhibition percentage of writhing response: 100.0** %
Kunming mice [3]; 10 mg/kg S.c.
  Percentage increase in pain threshold: 41.11%
Kunming mice [3]; 20 mg/kg S.c.
  Percentage increase in pain threshold: 73.68* %
Kunming mice [3]; 40 mg/kg S.c.
  Percentage increase in pain threshold: 72.38* %
5-HT2A receptor
  IC50: 4.78 nM
  Ki: 3.22 nM
  inhibitory activity on 5-HT2A (in words): potent inhibitory activities
5-HT2A receptor; final concentration 10 umol/L
  inhibition at 10 µM: 100%

## COC(=O)c1ccc2ccn(CCCN3CCC(c4noc5cc(F)ccc45)CC3)c2c1 [II-7, methyl 1-(3-(4-(6-fluorobenzo[d]isoxazol-3-yl)piperidin-1-yl)propyl)-1H-indole-6-carboxylate]
mice
  Sedative effect: 96**

## CC(=O)Oc1ccccc1C(=O)O [Aspirin, reference compound]
Kunming mice [2]; positive control, 200 mg/kg oral, 1 h before acetic acid
  Inhibition percentage of writhing response: 95.05** %

## N#Cc1ccc2ncn(CCCCN3CCC(c4noc5cc(F)ccc45)CC3)c2c1 [III-3, 1-(4-(4-(6-fluorobenzo[d]isoxazol-3-yl)piperidin-1-yl)butyl)-1H-benzo[d]imidazole-6-carbonitrile]
mice
  Sedative effect: 52*

## N#Cc1ccc2ccn(OCCN3CCC(c4noc5cc(F)ccc45)CC3)c2c1 [IV-1, 1-(2-(4-(6-fluorobenzo[d]isoxazol-3-yl)piperidin-1-yl)ethoxy)-1H-indole-6-carbonitrile]
mice
  Sedative effect: 20

## Fc1ccc2c(C3CCN(CCCCn4cnc5ccccc54)CC3)noc2c1 [II-12, 3-(1-(4-(1H-benzo[d]imidazol-1-yl)butyl)piperidin-4-yl)-6-fluorobenzo[d]isoxazole]
mice
  Sedative effect: 52*
5-HT2A receptor
  inhibition at 10 µM: 99.5%

## Fc1ccc2c(C3CCN(CCCn4ccc5ccc(F)cc54)CC3)noc2c1 [II-5, 6-fluoro-3-(1-(3-(6-fluoro-1H-indol-1-yl)propyl)piperidin-4-yl)benzo[d]isoxazole]
mice
  Sedative effect: 65*

## CN1CC[C@]23c4c5ccc(O)c4O[C@H]2[C@@H](O)C=C[C@H]3[C@H]1C5 [Morphine, reference compound]
Kunming mice [3]; positive control, 2 mg/kg S.c., hot plate 55° C.
  Percentage increase in pain threshold: 202.5** %

## Fc1ccc2c(C3CCN(CCCCn4ccc5ccccc54)CC3)noc2c1 [II-3, 3-(1-(4-(1H-indol-1-yl)butyl)piperidin-4-yl)-6-fluorobenzo[d]isoxazole]
mice
  Sedative effect: 35
[1]
  inhibitory activity on 5-HT reuptake (in words): potent inhibitory activities
  inhibition at 10 µM: 95.9%
Kunming mice [2]; [4]
  Inhibition percentage of writhing response: 98.65** %
Kunming mice [2]; [5]
  Inhibition percentage of writhing response: 100.0** %
Kunming mice [2]; [6]
  Inhibition percentage of writhing response: 100.0** %
Kunming mice [3]; 10 mg/kg S.c.
  Percentage increase in pain threshold: 95.48* %
Kunming mice [3]; 20 mg/kg S.c.
  Percentage increase in pain threshold: 194** %
Kunming mice [3]; 40 mg/kg S.c.
  Percentage increase in pain threshold: 133%
5-HT2A receptor
  IC50: 1.66 nM
  Ki: 1.12 nM
  inhibitory activity on 5-HT2A (in words): potent inhibitory activities
5-HT2A receptor; final concentration 10 umol/L
  inhibition at 10 µM: 100%

## Fc1ccc2c(C3CCN(CCn4ccc5ccccc54)CC3)noc2c1 [II-1, 3-(1-(2-(1H-indol-1-yl)ethyl)piperidin-4-yl)-6-fluorobenzo[d]isoxazole]
mice
  Sedative effect: 43*
5-HT2A receptor
  inhibition at 10 µM: 99.5%

## Fc1ccc2c(C3CCN(CCCn4cnc5ccccc54)CC3)noc2c1 [II-11, 3-(1-(3-(1H-benzo[d]imidazol-1-yl)propyl)piperidin-4-yl)-6-fluorobenzo[d]isoxazole]
mice
  Sedative effect: 0
5-HT2A receptor
  inhibition at 10 µM: 99.6%

## Fc1ccc2c(C3CCN(CCCCn4ccc5ccc(F)cc54)CC3)noc2c1 [II-8, 6-fluoro-3-(1-(4-(6-fluoro-1H-indol-1-yl)butyl)piperidin-4-yl)benzo[d]isoxazole]
mice
  Sedative effect: 42*
[1]
  inhibitory activity on 5-HT reuptake (in words): potent inhibitory activities
  inhibition at 10 µM: 107%
Kunming mice [2]; [4]
  Inhibition percentage of writhing response: 95.88* %
Kunming mice [2]; [5]
  Inhibition percentage of writhing response: 96.46** %
Kunming mice [2]; [6]
  Inhibition percentage of writhing response: 100.0** %
Kunming mice [3]; 10 mg/kg S.c.
  Percentage increase in pain threshold: 97.49%
Kunming mice [3]; 20 mg/kg S.c.
  Percentage increase in pain threshold: 160.50** %
Kunming mice [3]; 40 mg/kg S.c.
  Percentage increase in pain threshold: 172.81* %
5-HT2A receptor
  IC50: 5.33 nM
  Ki: 2.79 nM
  inhibitory activity on 5-HT2A (in words): potent inhibitory activities
5-HT2A receptor; final concentration 10 umol/L
  inhibition at 10 µM: 100%

Source: US20110306638A1, “BENZISOXAZOLE PIPERIDINYL DERIVATIVES, PHARMACEUTICAL COMPOSITIONS COMPRISING THE DERIVATIVES AND THEIR USE” (NHWA PHARMA. CORPORATION, priority 2008, published 2011)
